Test results taken from patent US9738605B2, “Hybrid compounds of curcumin and melatonin as neuroprotectants for neurodegenerative disorders” (VIRGINIA COMMONWEALTH UNIVERSITY, priority 2013, dated 2017).
“Also recorded” adds a separate entry of the source. Where two headings read alike, the source gives them in different places.

Tests used:
[1] = tested on: amyloid-β oligomers (AβOs) in MC65 cells; test: Western blot (6E10) of AβOs production in MC65 cells; assay type: cell-based; settings: MC65 cells after removal of TC, 6E10 antibody
Experimental: MC65 cells (4×10^5 cells/mL) were treated with indicated compounds for 30 h and then were lysed by sonication in a Tricine buffer solution and boiled for 5 min. Protein samples were collected from the supernatant after centrifugation of the samples at 12,800×g for 5 min, and then quantified using the Bradford method. Equal amounts of protein (20.0 μg) were separated by SDS-PAGE on a gel (Bio-Rad) and transferred onto a PVDF membrane (Bio-Rad). The blots were blocked with 5% milk in TBS-Tween 20 (0.1%) solution at room temperature for 1 h and then probed with the 6E10 antibody overnight at 4° C. The blots were washed twice in TB S-Tween 20 for 15 min, and then incubated with a 1:1000 dilution of horseradish peroxidase-conjugated secondary antibody in a 5% milk/PBS-Tween 20 solution at room temperature for 1 h. After washing twice in TBS-Tween 20 for 15 min, the proteins were visualized by a Western Blot Chemiluminescence Reagent (Thermo Fischer Scientific, Waltham, Mass.). The blots were also probed with antibodies against α-tubulin to ensure equal loading of proteins.

[2] = In vivo BBB penetration experiment, LC-MS/MS of plasma and brain; design: species or system CD-1 male mice
Experimental: Briefly, ten week old CD-1 male mice were purchased from Harlan Laboratories (Frederich, Md.). Compound 9 was diluted to a concentration of 15 mg/mL in a solution with 2% DMSO and 10% Cremophor in PBS, and was administered via oral gavage at a final dosage of 50 mg/kg. Two groups of mice (n=6/group) were used to determine the plasma and brain concentrations of the compound at various time-points. […] Afterwards, the right atrium was removed to allow exsanguination, and the left ventricular apex was cannulated with a 24 G needle and perfused with 30 mL of warm (37° C.) heparinized normal saline solution to enable perfusion of all the organs and complete blood washout. The perfused brains were then collected, rapidly washed in normal saline, blot-dried, and frozen in liquid nitrogen. Brain samples were then analyzed by the LC-MS/MS.
For brain samples, half a brain was weighed and diluted with 1.0 mL of acetonitrile and then mixed well. For plasma samples, 0.01 mL of plasma was diluted with 0.99 mL of acetonitrile and then mixed well. After mixing, samples were centrifuged at 15,000 rpm and the supernatant was transferred to a new tube and evaporated to dryness using spin vacuum. The samples were then reconstituted with an 80:20 solution of 1% acetic acid in acetonitrile: 1% acetic acid in water, and a volume of 0.025 mL was then injected into the LC-MS/MS. The LC/MS/MS method employed positive electrospray ionization (ESI) with a selected reaction monitoring (SRM) mode. Compound 9 was monitored using the following SRM transitions: 381→174, 130, and 159. Chromatographic separation was achieved under gradient conditions using a Waters Acquity® UPLC, with a reversed phase column (Gemini 5u C18 110 Å, 100 mm×2.0 mm; 5 um, Phenomenex Inc., Torrance, Calif.) with a mobile phase composition of 1% acetic acid in water (mobile phase A) and 1% acetic acid in acetonitrile (mobile phase B). The initial gradient consisted of 30% B for 1 min, 30% to 95% B from 1 to 3 min, hold for 1 min at 95% B, and then equilibrate at 30% B for 2.5 min. The total run time was 6.5 min. Results were processed using Analyst 1.5.2 software. Absolute recovery, precision and accuracy, and matrix effects experiments produced an efficient method to continue sample analysis. Calibration curves were made with freshly prepared samples and calculated using peak area versus concentration with a linear or quadratic regression. Accuracy fell in the range of 85% to 115%.
To accurately quantify the amount of 7 that is delivered into brain tissue and rule out the possibility of biased interpretation from vascular trapping, we perfused the mice to wash out the vascular blood completely prior to collecting brain tissues. After oral administration, plasma samples were collected at 0.25, 0.5, 1, and 24 hours, and brain samples were collected at 1 and 24 hours.

[3] = tested on: intracellular oxidative stress in MC65 cells; test: ROS production assay in MC65 cells (DCFH-DA); assay type: cell-based; settings: −TC, 48 h, DCFH-DA 25 μM, read-out: IC50 for suppression of intracellular oxidative stress
Experimental: Cells were harvested, washed twice with cold PBS, then suspended in PBS and incubated with DCFH-DA (25 μM) in dark for 1 h. Fluorescence was analyzed by flow cytometry using a Millipore Guava® easyCyte flow cytometer.

- concentration at 1 h ([2]; male, CD-1, mouse, brain, po, 50 mg/kg, perfused mice, n = 6, 1 h, read-out: Brain concentration, 1 h): 555 ± 188 nM
- concentration at 24 h ([2]; male, CD-1, mouse, brain, po, 50 mg/kg, perfused mice, n = 6, 24 h, read-out: Brain concentration, 24 h): 47.4 ± 11.2 nM
- concentration at 15 min ([2]; male, CD-1, mouse, plasma, po, 50 mg/kg, mice, n = 6, 15 min): 773 ± 310 nM
- concentration at 30 min ([2]; male, CD-1, mouse, plasma, po, 50 mg/kg, mice, n = 6, 30 min): 795 ± 301 nM
- concentration at 1 h ([2]; male, CD-1, mouse, plasma, po, 50 mg/kg, mice, n = 6, 1 h, read-out: Plasma concentration, 1 h): 883 ± 350 nM
- concentration at 24 h ([2]; male, CD-1, mouse, plasma, po, 50 mg/kg, mice, n = 6, 24 h, read-out: Plasma concentration, 24 h): 30.5 ± 12 nM
- Plasma concentration, 15 min ([2]; oral 50 mg/kg, mice, n = 6, 15 min): 773.80 ± 309.86 nM
- Plasma concentration, 1 h ([2]; oral 50 mg/kg, mice, n = 6, 1 h): 883.12 ± 350.36 nM
- Plasma concentration, 24 h ([2]; oral 50 mg/kg, mice, n = 6, 24 h): 30.53 ± 11.96 nM
- Brain concentration, 1 h ([2]; oral 50 mg/kg, perfused mice, n = 6, 1 h): 555.40 ± 188.44 nM
- Brain concentration, 24 h ([2]; oral 50 mg/kg, perfused mice, n = 6, 24 h): 47.41 ± 11.19 nM
- IC50 [3]: ~0.068 µM
SMILES: COc1ccc2[nH]cc(CCNC(=O)CC(=O)CCc3ccc(O)cc3)c2c1 [Compound 7, 5-(4-hydroxy-phenyl)-3-oxo-pentanoic acid [2-(5-methoxy-1H-indol-3-yl)-ethyl]-amide]
- effect on the production of AβOs (tetramers, pentamers, heptamers) [1]: moderate inhibitory effects; also recorded: dose-dependently suppressed
- BBB penetration after oral administration ([2]; oral 50 mg/kg, mice): confirmed to cross the blood-brain barrier; also recorded: confirming its BBB permeability
